Laboratory results as given in ChEMBL document CHEMBL1201862, “PubChem BioAssay data set” (2004).
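96-well plates; 48 h exposure; 5 concentrations. Endpoints by linear interpolation between flanking doses. Not reached: highest tested concentration assigned. Here, GI50 denotes the concentration required for 50% inhibition of growth.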 Calls of active or inactive are those of the source. Cut-off read from the data, not from the text of the source: active = GI50 up to about 1.1 µM and inactive = higher.

Key:
Test in all cases: DTP human tumour cell line panel, 48 h
[1] = tested on: 786-0
[2] = tested on: A549
[3] = tested on: ACHN
[4] = tested on: CAKI-1
[5] = tested on: CCRF-CEM
[6] = tested on: COLO 205
[7] = tested on: DLD-1
[8] = tested on: DMS-114
[9] = tested on: DMS-273
[10] = tested on: HCT-116
[11] = tested on: HCT-15
[12] = tested on: HL-60
[13] = tested on: HOP-18
[14] = tested on: HOP-62
[15] = tested on: HOP-92
[16] = tested on: HT-29
[17] = tested on: IGROV-1
[18] = tested on: K562
[19] = tested on: KM-20L2
[20] = tested on: KM12
[21] = tested on: LOX IMVI
[22] = tested on: LXFL 529
[23] = tested on: M14
[24] = tested on: M19-MEL
[25] = tested on: MOLT-4
[26] = tested on: Malme-3M
[27] = tested on: NCI-H226
[28] = tested on: NCI-H23
[29] = tested on: NCI-H460
[30] = tested on: NCI-H522
[31] = tested on: OVCAR-3
[32] = tested on: OVCAR-4
[33] = tested on: OVCAR-5
[34] = tested on: OVCAR-8
[35] = tested on: RPMI-8226
[36] = tested on: RXF 393
[37] = tested on: SF-268
[38] = tested on: SF-295
[39] = tested on: SF-539
[40] = tested on: SK-MEL-28
[41] = tested on: SK-MEL-2
[42] = tested on: SK-MEL-5
[43] = tested on: SK-OV-3
[44] = tested on: SN12C
[45] = tested on: SNB-19
[46] = tested on: SNB-75
[47] = tested on: SNB-78
[48] = tested on: SR
[49] = tested on: SW-620
[50] = tested on: TK-10
[51] = tested on: U-251
[52] = tested on: UACC-257
[53] = tested on: UACC-62
[54] = tested on: UO-31
[55] = tested on: XF498
[56] = tested on: A498
[57] = tested on: EKVX
[58] = tested on: HCC 2998
[59] = tested on: RXF 631
[60] = tested on: BT-549
[61] = tested on: DU-145
[62] = tested on: Hs-578T
[63] = tested on: MCF7
[64] = tested on: MDA-MB-231
[65] = tested on: MDA-MB-435
[66] = tested on: MDA-N
[67] = tested on: NCI/ADR-RES
[68] = tested on: PC-3
[69] = tested on: T47D

Measured: GI50

O=C(c1cccs1)N(C(=S)N1CCN(c2ccccn2)CC1)c1ccccc1
61 µM: [11]
inactive: [1] > 100 µM | [2] > 100 µM | [3] > 100 µM | [4] 76 µM | [5] > 100 µM | [6] > 100 µM | [7] > 100 µM | [8] 53 µM | [9] 82.8 µM | [10] 56.2 µM | [12] > 100 µM | [13] > 100 µM | [14] > 100 µM | [15] > 100 µM | [16] > 100 µM | [17] > 100 µM | [18] > 100 µM | [19] > 100 µM | [20] > 100 µM | [21] > 100 µM | [22] 39.4 µM | [23] 76.7 µM | [24] 81.1 µM | [25] 48.4 µM | [26] > 100 µM | [27] 29 µM | [28] > 100 µM | [29] > 100 µM | [30] 36.2 µM | [31] > 100 µM | [32] > 100 µM | [33] > 100 µM | [34] 81.7 µM | [35] > 100 µM | [36] 35 µM | [37] 87.3 µM | [38] 80.4 µM | [39] > 100 µM | [40] > 100 µM | [41] 57.4 µM | [42] 41.6 µM | [43] > 100 µM | [44] > 100 µM | [45] > 100 µM | [46] > 100 µM | [47] > 100 µM | [48] > 100 µM | [49] > 100 µM | [50] > 100 µM | [51] > 100 µM | [52] 83.2 µM | [53] 46.5 µM | [54] 39.2 µM | [55] 37.5 µM

COc1cc(C(=O)C/C(CCC(=O)Nc2ccc(Cl)cc2Cl)=N/Nc2nnc(C)n2N)ccc1O
> 100 µM: [11]
inactive: [1] > 100 µM | [56] 92.7 µM | [2] > 100 µM | [3] > 100 µM | [4] 45.9 µM | [5] > 100 µM | [6] > 100 µM | [7] > 100 µM | [9] > 100 µM | [57] 67.1 µM | [58] > 100 µM | [10] > 100 µM | [12] > 100 µM | [13] > 100 µM | [14] > 100 µM | [15] > 100 µM | [16] > 100 µM | [17] > 100 µM | [18] > 10 µM | [19] > 100 µM | [20] > 100 µM | [21] > 100 µM | [22] > 100 µM | [23] > 100 µM | [24] > 100 µM | [26] > 100 µM | [27] > 100 µM | [28] > 100 µM | [29] > 100 µM | [30] > 100 µM | [31] > 100 µM | [33] > 100 µM | [34] > 100 µM | [35] > 100 µM | [36] > 100 µM | [37] > 100 µM | [38] > 100 µM | [39] > 100 µM | [40] > 100 µM | [41] > 100 µM | [42] > 100 µM | [43] > 100 µM | [44] > 100 µM | [45] > 100 µM | [46] > 100 µM | [47] > 100 µM | [48] > 100 µM | [49] > 100 µM | [50] > 100 µM | [51] > 100 µM | [52] > 100 µM | [53] > 100 µM | [54] > 100 µM | [55] > 100 µM

CCN1C[C@]2(C)CC[C@H](OC)C34C1C([C@H](OC(C)=O)[C@@H]32)[C@@]1(OC)C[C@H](OC)[C@H]2C[C@@H]4[C@@H]1[C@H]2O
87.5 µM: [11]
inactive: [1] > 100 µM | [56] > 100 µM | [2] > 100 µM | [3] > 100 µM | [4] > 100 µM | [5] > 100 µM | [6] 55.5 µM | [7] > 100 µM | [8] 82.4 µM | [9] > 100 µM | [57] > 100 µM | [58] > 100 µM | [10] > 100 µM | [12] > 100 µM | [13] > 100 µM | [14] > 100 µM | [15] > 100 µM | [16] > 100 µM | [17] > 100 µM | [18] 92.5 µM | [19] > 100 µM | [20] > 100 µM | [21] > 100 µM | [22] > 100 µM | [23] > 100 µM | [24] > 100 µM | [25] > 100 µM | [26] > 100 µM | [27] > 100 µM | [28] > 100 µM | [29] > 100 µM | [30] > 100 µM | [32] > 100 µM | [33] > 100 µM | [34] > 100 µM | [35] > 100 µM | [36] > 100 µM | [37] > 100 µM | [38] > 100 µM | [39] > 100 µM | [40] > 100 µM | [41] > 100 µM | [42] > 100 µM | [43] > 100 µM | [44] > 100 µM | [45] > 100 µM | [46] > 100 µM | [47] > 100 µM | [49] 54.2 µM | [50] > 100 µM | [51] > 100 µM | [52] > 100 µM | [53] > 100 µM | [54] > 100 µM | [55] > 100 µM

CC1(Cl)CCC2(CC(Br)=CC3OC32C)CC1Br (centres undefined)
inactive: [56] 26.6 µM | [2] 28.6 µM | [5] 18.6 µM | [8] 29.4 µM | [57] 52.6 µM | [10] 18.2 µM | [12] 15.2 µM | [14] 39.4 µM | [15] 24.9 µM | [16] 17.9 µM | [17] 42.9 µM | [20] 32.5 µM | [23] 43.2 µM | [24] 32.3 µM | [25] 17 µM | [27] 23.2 µM | [28] 20.1 µM | [29] 27.1 µM | [30] 23.9 µM | [33] 79.4 µM | [34] 30.8 µM | [36] 18.3 µM | [59] > 10 µM | [37] 19.2 µM | [38] 22.6 µM | [40] 23.6 µM | [43] 51.8 µM | [45] 45 µM | [47] 12.4 µM | [48] 20.7 µM | [50] 46.6 µM | [51] 19 µM | [52] 18.4 µM | [53] 19.2 µM | [54] 28.6 µM

CC12CC(Br)(Br)C(=O)C3C1CCCC32
inactive: [1] 4.07 µM | [56] 16.8 µM | [2] 14.6 µM | [3] 5.27 µM | [60] 2.09 µM | [4] 2.65 µM | [5] 1.36 µM | [6] 2.38 µM | [7] 4.63 µM | [8] 6.3 µM | [9] 6.58 µM | [61] 12.4 µM | [57] 7.1 µM | [58] 6.89 µM | [10] 1.93 µM | [13] 9.89 µM | [14] 17.5 µM | [15] 2.17 µM | [16] 5.47 µM | [62] 12.6 µM | [17] 10.1 µM | [18] 2.1 µM | [19] 17.4 µM | [20] 13 µM | [21] 2.68 µM | [22] 2.38 µM | [23] 3.64 µM | [24] 8.34 µM | [63] 4.33 µM | [64] 3.24 µM | [65] 3.03 µM | [66] 2.99 µM | [25] 1.67 µM | [26] 4.06 µM | [27] 11.3 µM | [28] 6.46 µM | [29] 14.9 µM | [30] 3.08 µM | [67] 2.51 µM | [31] 3.15 µM | [32] 4.48 µM | [33] 17.8 µM | [34] 4.07 µM | [68] 12.2 µM | [35] 2.84 µM | [36] 2.11 µM | [37] 10.2 µM | [38] 15.9 µM | [39] 11.9 µM | [40] 2.9 µM | [41] 13.9 µM | [42] 5.55 µM | [43] 15.3 µM | [44] 4.57 µM | [45] 14.2 µM | [46] 8.2 µM | [47] 20 µM | [48] 4.43 µM | [49] 2.25 µM | [69] 2.38 µM | [50] 6.27 µM | [51] 11.5 µM | [52] 8.65 µM | [53] 7.13 µM | [54] 6.05 µM | [55] 8.73 µM
3.61 µM: [11]
active: [12] 0.767 µM
